Measurements as given in patent US20130116291A1, “ASSOCIATION OF XANTHINE OXIDASE INHIBITORS AND STATINS AND USE THEREOF” (Menarini International Operations Luxembourg S.A., priority 2010, published 2013).

Tested on: Wistar rats subjected to a cholesterol-rich (2%) diet
Assay: Hypocholesterolemic activity in rats on a cholesterol-rich diet (plasma total cholesterol)
Format: in vivo, rat
Conditions: for Diminution of plasma total cholesterol in rats: cholesterol-rich (2%) diet
Experimental: Plasma levels of total cholesterol were measured with a standard colorimetric enzymatic method. […] Plasma levels of total cholesterol were determined at one-week intervals. Blood was collected from a tail vein.

Row | Structure (SMILES) | Reduction of the cholesterolemia values (in words) (doses of 5 and 10 mg/kg, starting from the first week of treatment) | Maximum reduction of the cholesterolemia values (highest dose (10 mg/kg, as calcium salt, per os daily), peak at 2 weeks, constant in the successive weeks) [%] | Diminution of plasma total cholesterol in rats (1 mg/Kg orally by gavage once per day for 4 weeks) | Diminution of plasma total cholesterol in rats (5 mg/Kg orally by gavage once per day for 4 weeks) | Diminution of plasma total cholesterol in rats ([…] orally by gavage once per day for 4 weeks) | Effect on cholesterol levels in the 4 weeks of observation (highest dose, 5 mg/kg per day, per os, Wistar rats, cholesterol-rich diet)
1 | CC(C)c1c(C(=O)Nc2ccccc2)c(-c2ccccc2)c(-c2ccc(F)cc2)n1CC[C@@H](O)C[C@@H](O)CC(=O)O [Atorvastatin, atorvastatin] | significant and dose-dependent reduction | 80 | – | – | – | –
2 | Cc1nc(-c2ccc(OCC(C)C)c(C#N)c2)sc1C(=O)O [Febuxostat, febuxostat] | – | – | No diminution | No diminution | No diminution | did not significantly modify
